According to PubChem BioAssay (NCI):
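Following 48 hours of exposure in 96-well plates, responses at five concentrations were used to interpolate endpoints linearly. TGI: concentration producing complete growth inhibition.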

How the values were obtained:
Test in all cases: inhibition of tumour cell growth, NCI panel, 48 h
[1] = system: ACHN renal
[2] = system: DU-145 prostate
[3] = system: HCC-2998 colon
[4] = system: HCT-15 colon
[5] = system: M14 melanoma
[6] = system: NCI-H460 lung
[7] = system: NCI-H522 lung
[8] = system: OVCAR-8 ovarian
[9] = system: SK-MEL-5 melanoma
[10] = system: UACC-62 melanoma

| Compound | TGI [1] [µM] | TGI [2] [µM] | TGI [3] [µM] | TGI [4] [µM] | TGI [5] [µM] | TGI [6] [µM] | TGI [7] [µM] | TGI [8] [µM] | TGI [9] [µM] | TGI [10] [µM] |
| --- | --- | --- | --- | --- | --- | --- | --- | --- | --- | --- |
| Brc1ccc2[nH]cc(-c3csc(-c4c[nH]c5ccccc45)n3)c2c1 | 13.2 | 9.15 | 3.96 | 6.54 | 5.14 | 12.6 | 3.53 | 21.2 | 5.64 | > 22.5 |
| O=S(=O)(O)CCCc1cccc2ccccc12 | > 100 | > 100 | > 100 | > 100 | > 100 | > 100 | > 100 | > 100 | > 100 | > 100 |
| O=c1oc2ccc3ccccc3c2cc1-c1nc2ccccc2s1 | > 100 | > 100 | > 100 | > 100 | > 100 | > 100 | > 100 | > 100 | > 100 | > 100 |
| O=C1C=CC(=O)c2c1ccc1c3ccccc3n(CCCCCn3c4ccccc4c4ccc5c(c43)C(=O)C=CC5=O)c21 | 28.6 | > 100 | > 80.8 | 36.2 | 39.3 | > 100 | 4.37 | 46.9 | > 86.1 | 71.8 |
| COc1cc(OC)cc(Oc2nc3ccccc3nc2C(F)(F)F)c1 | > 100 | > 100 | > 100 | > 100 | > 100 | > 100 | > 100 | > 100 | > 100 | > 100 |
| NC(N)=NCCN1CC2CCC(CC2)C1 | > 100 | > 100 | > 100 | > 100 | > 100 | > 100 | > 100 | > 100 | > 100 | > 100 |
